Earlier results as cited in patent US7935500B2, “Identifying calcineurin activators for treatment of schizophrenia” (Massachusetts Institute of Technology, priority 2002, dated 2011).

Tests used:
ryanodine receptor [1] = conditions: literature study [28]
ryanodine receptor [2] = conditions: literature study [28]; remark: listed apart in the source
IP3 receptors [3] = conditions: literature studies [29], [30]
IP3 receptors [4] = conditions: literature studies [29], [30]; remark: listed apart in the source

effect on calcium influx (IP3 receptors [3])	Structure (SMILES)	effect on binding of [3H]-ryanodine to membranes (ryanodine receptor [1])	effect on probability of the channel being open (calcium influx) (ryanodine receptor [2])	effect on binding of [3H]-IP3 to membranes (IP3 receptors [4])
	Cc1ccc(C(=O)Nc2ccc(S(=O)(=O)O)c3cc(S(=O)(=O)O)cc(S(=O)(=O)O)c23)cc1NC(=O)c1cccc(NC(=O)Nc2cccc(C(=O)Nc3cc(C(=O)Nc4ccc(S(=O)(=O)O)c5cc(S(=O)(=O)O)cc(S(=O)(=O)O)c45)ccc3C)c2)c1 [suramin]	increase binding of [3H]-ryanodine to membranes	increase the probability of the channel being open	
decrease calcium influx	CCN(CC)CCCC(C)Nc1ccnc2cc(Cl)ccc12 (stereo not shown) [chloroquine]			decrease binding of [3H]-IP3 to membranes
